“And” between values parts separate entries of the source, which are not always exact repeats. Equal values may be shown once. Read-outs that look alike come from different tables or passages of the source.
How the values were obtained:
[1] = tested on: human mesenchymal stem cells (hMSCs)
Procedure: Senescent cell model and staining. hMSCs or mMSCs senescence was induced chemically using hydrogen peroxide or using X-ray radiation. The medium containing hydrogen peroxide (H2O2) was prepared by diluting 30% H2O2 solution (H1009, Sigma, USA) with MSCs culture medium to desired concentrations. For the H2O2 treatment experiments, the MSCs were cultured in the medium containing H2O2 at 37° C. for 3 hours. After that, the MSCs were washed with 1×DPBS 2 times and cultured in the fresh media for a variable number of days before analysis. For X-ray radiation treatment, MSCs were placed on a rotating table and exposed to 1 gray (Gy), 4 Gy, or 6 Gy radiation. After treatment, cells were cultured for a variable number of days before analysis. The senescent cells were identified by the senescence detection kit (K320, BioVision, USA), which targets senescence-associated β-galactosidase (SA-β-gal) activity, following the manufacturer's provided protocol. […] For the experiments using the mixture of basal and H2O2-treated hMSCs, the H2O2-treated hMSCs were stained with cell tracker (C34551, CellTracker™ orange CMRA Dye™ dye, ThermoFisher Scientific, USA), while basal hMSCs were stained with Hoechst for 10 minutes to differentiate two cell populations.
Cellular senescence induction of human MSCs. Hydrogen peroxide (H2O2) was used to induce cellular senescence of human MSCs. We tested three H2O2 concentrations: 100, 200, and 300 μM. Concentrated H2O2 (100×) was prepared and was added to hMSC culture media using a 1 to 100 dilution, after which, hMSCs were cultured in H2O2 contained medium in a 37° C. incubator for three hours. After H2O2 treatment, the H2O2 contained medium was withdrawn and the culture wells were washed with DPBS two times. Fresh culture medium was then added to cells for 1, 4, and 7 days post-culture. hMSCs were detached using Trypsin/EDTA, then labeled with a senescence detection kit in a 37° C. incubator overnight following the manufacturer's recommended protocol (K320, BioVision, USA). The senescence kit targets senescence-associated β-galactosidase (SA-β-gal) activity within cells. The SA-β gal^+ cells and total cells were counted to estimate the senescence cell ratio. […] For the experiment to mix basal hMSCs with H2O2 treated hMSCs, the basal hMSCs followed the same culture protocol, but without H2O2 treatment.

[2] = tested on: mouse mesenchymal stem cells (mMSCs)
Procedure: Mouse mesenchymal stem cells (MSCs) were purchased from Cyagen (Strain C57BL/6 Mouse Mesenchymal Stem Cells, MUBMX-01001, Cyagen, USA). Cells were cultured in a humidified incubator (Symphony 5.3A CO2 incubator, VWR, USA) at 37° C. with 5% CO2. MSCs basal medium (PT-3238, Lonza) with MSCGM™ SingleQuots supplement kit (PT-4105, Lonza) was used for hMSC culture, and MesenCult™ Expansion kit (5513, [sequence] Technologies, Canada) was used for mMSC culture. Both media were supplemented with 1% penicillin-streptomycin (15140122, ThermoFisher Scientific, USA) to prevent cell contamination during culture. Basal MSCs were stained with either Hoechst (Hoechst 33342, H3570, ThermoFisher Scientific, USA) for 10 minutes or cell tracker (C2102, CellTracker™ green BODIPY™ dye, ThermoFisher Scientific, USA) for 15 minutes. In all cases, adhesive cells were detached using Trypsin/EDTA (CC3232, Lonza) at 37° C. for 10 minutes. The size of trypsinized cells was measured by the analytical tool provided in the Olympus cellSens Dimension software.

[3] = tested on: human mesenchymal stem cells (hMSCs); conditions: 300 μM H2O2, 3 hours (FIG. 19B)
Procedure: Cell culture and staining. Human mesenchymal stem cells (MSCs) were derived from a person and purchased from Lonza (Lonza, 0000471980). […] Cells were cultured in a humidified incubator (Symphony 5.3A CO2 incubator, VWR, USA) at 37° C. with 5% CO2. MSCs basal medium (PT-3238, Lonza) with MSCGM™ SingleQuots supplement kit (PT-4105, Lonza) was used for hMSC culture, and MesenCult™ Expansion kit (5513, [sequence] Technologies, Canada) was used for mMSC culture. Both media were supplemented with 1% penicillin-streptomycin (15140122, ThermoFisher Scientific, USA) to prevent cell contamination during culture. Basal MSCs were stained with either Hoechst (Hoechst 33342, H3570, ThermoFisher Scientific, USA) for 10 minutes or cell tracker (C2102, CellTracker™ green BODIPY™ dye, ThermoFisher Scientific, USA) for 15 minutes. In all cases, adhesive cells were detached using Trypsin/EDTA (CC3232, Lonza) at 37° C. for 10 minutes. The size of trypsinized cells was measured by the analytical tool provided in the Olympus cellSens Dimension software.

[4] = tested on: human mesenchymal stem cells (hMSCs); experiment: Necrosis of human MSCs (apoptosis kit, annexin V-FITC / SYTOX green); conditions: for necrotic cell percentage of hMSCs: 300 μM H2O2 treated
[5] = tested on: mouse mesenchymal stem cells (mMSCs); conditions: 150 μM H2O2; each timepoint including 24 hours after treatment
Procedure: Cellular senescence induction of mouse MSCs. […] At each timepoint, mMSCs were labeled with a senescence detection kit in a 37° C. incubator overnight. The senescence cell ratio was calculated by dividing the SA-β gal^+ cells over the total number of cells counted.

[6] = 300 μM H2O2 treated hMSCs, cultured 7 days, stored at 4° C. another 2 days (FIG. 19B)
[7] = 150 μM H2O2 for three hours, after culturing for 1 day

Q: For OO [H2O2, hydrogen peroxide], which “percentage of senescent hMSCs” value ([1]; 300 μM H2O2 for 3 hours, 1 day post-treatment) is on record?
A: 9.9%

Q: What about the “percentage of senescent hMSCs” value ([1]; 300 μM H2O2 for 3 hours, 3 days post-treatment) of the same molecule?
A: 16.5%

Q: What about the “percentage of senescent hMSCs (senescence ratio)” value ([1]; 300 μM H2O2 for 3 hours, 7 days post-treatment) of the same molecule?
A: ~50% and 57.7%

Q: And the “percentage of senescent cells” value [1, 6]?
A: 51.7%

Q: What about the “increase of size compared to basal mMSCs” value [2, 7] of the same molecule?
A: 3.5 μm

Q: And the “size of mMSCs” value [2, 7]?
A: 16.8+/−2.5 μm

Q: What about the “purity of cells >15 μm” value ([2]; H2O2 (150 μM) treated mMSCs, sample input) of the same molecule?
A: 43.5%

Q: What about the “size of hMSCs” value [3] of the same molecule?
A: 29.4+/−3.2 μm

Q: What about the “percentage of necrotic cells” value [4, 6] of the same molecule?
A: 37%

Q: And the “percentage of viable cells” value [4, 6]?
A: 11.3%

Q: And the “necrotic cell percentage of hMSCs” value ([4]; before storage at 4° C.)?
A: 25%

Q: What about the “necrotic cell percentage of hMSCs” value ([4]; stored at 4° C. refrigerator for 2 days) of the same molecule?
A: 56%

Q: And the “senescence ratio of mMSCs versus cells without H2O2 treatment” value [5]?
A: higher
